Results: ChEMBL document CHEMBL1157122, “The contribution of a 2-amino group on receptor tyrosine kinase inhibition and antiangiogenic activity in 4-anilinosubstituted pyrrolo[2,3-d]pyrimidines” (Bioorg Med Chem Lett, 2010)

Assays:
[1] = test system: chorioallantoic membrane (Gallus gallus); assay: cells; conditions: Homo sapiens, A-431
[2] = target: Platelet-derived growth factor receptor beta (Homo sapiens, UniProt P09619); assay: Inhibition of PDGFRbeta
[3] = target: T1, Epidermal growth factor receptor (Homo sapiens, UniProt P00533); assay: cell-based
[4] = target: Vascular endothelial growth factor receptor 1 (Homo sapiens, UniProt P17948); assay: cell-based
[5] = target: T2, Vascular endothelial growth factor receptor 2 (Homo sapiens, UniProt P35968); assay: cell-based
[6] = test system: A-431; assay: cells; conditions: Homo sapiens
[7] = target: T1, Epidermal growth factor receptor
[8] = target: T2, Vascular endothelial growth factor receptor 2

T2 sequence (P35968 whole entry): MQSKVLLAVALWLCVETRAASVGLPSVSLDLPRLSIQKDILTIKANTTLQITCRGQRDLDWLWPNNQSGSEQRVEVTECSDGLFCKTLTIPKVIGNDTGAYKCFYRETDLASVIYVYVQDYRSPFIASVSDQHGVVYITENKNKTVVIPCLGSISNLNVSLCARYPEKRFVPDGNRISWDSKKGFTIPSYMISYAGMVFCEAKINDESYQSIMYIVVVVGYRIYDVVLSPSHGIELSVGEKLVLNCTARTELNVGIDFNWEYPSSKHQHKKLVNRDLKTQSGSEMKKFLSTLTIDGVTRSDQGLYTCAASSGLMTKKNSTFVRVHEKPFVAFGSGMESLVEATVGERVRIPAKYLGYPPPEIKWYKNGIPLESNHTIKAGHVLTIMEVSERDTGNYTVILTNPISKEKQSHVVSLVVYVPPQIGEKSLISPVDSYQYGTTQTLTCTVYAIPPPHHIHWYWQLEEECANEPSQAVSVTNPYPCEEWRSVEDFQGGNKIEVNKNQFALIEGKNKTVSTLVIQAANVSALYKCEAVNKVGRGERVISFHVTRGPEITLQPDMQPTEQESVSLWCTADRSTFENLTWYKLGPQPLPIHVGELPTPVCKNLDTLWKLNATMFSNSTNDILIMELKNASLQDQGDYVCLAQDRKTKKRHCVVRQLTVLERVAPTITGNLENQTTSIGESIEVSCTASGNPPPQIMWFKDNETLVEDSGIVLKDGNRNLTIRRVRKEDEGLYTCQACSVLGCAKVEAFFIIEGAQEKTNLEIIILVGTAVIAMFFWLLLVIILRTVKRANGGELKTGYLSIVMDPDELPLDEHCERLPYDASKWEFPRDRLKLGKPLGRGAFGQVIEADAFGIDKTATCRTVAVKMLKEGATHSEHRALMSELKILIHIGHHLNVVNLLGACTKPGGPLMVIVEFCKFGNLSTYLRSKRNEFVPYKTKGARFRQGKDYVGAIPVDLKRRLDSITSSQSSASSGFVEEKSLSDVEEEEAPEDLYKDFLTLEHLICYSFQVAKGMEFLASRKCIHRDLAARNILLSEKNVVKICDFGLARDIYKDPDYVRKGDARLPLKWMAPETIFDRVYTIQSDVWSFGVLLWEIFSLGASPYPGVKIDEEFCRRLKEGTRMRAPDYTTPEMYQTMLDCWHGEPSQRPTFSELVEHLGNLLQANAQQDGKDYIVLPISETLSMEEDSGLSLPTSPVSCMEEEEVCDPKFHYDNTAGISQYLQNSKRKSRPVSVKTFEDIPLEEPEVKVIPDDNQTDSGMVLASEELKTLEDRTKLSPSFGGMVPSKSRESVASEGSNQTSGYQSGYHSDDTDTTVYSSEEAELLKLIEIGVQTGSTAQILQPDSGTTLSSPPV
Platelet-derived growth factor receptor beta, sequence (P09619 whole entry): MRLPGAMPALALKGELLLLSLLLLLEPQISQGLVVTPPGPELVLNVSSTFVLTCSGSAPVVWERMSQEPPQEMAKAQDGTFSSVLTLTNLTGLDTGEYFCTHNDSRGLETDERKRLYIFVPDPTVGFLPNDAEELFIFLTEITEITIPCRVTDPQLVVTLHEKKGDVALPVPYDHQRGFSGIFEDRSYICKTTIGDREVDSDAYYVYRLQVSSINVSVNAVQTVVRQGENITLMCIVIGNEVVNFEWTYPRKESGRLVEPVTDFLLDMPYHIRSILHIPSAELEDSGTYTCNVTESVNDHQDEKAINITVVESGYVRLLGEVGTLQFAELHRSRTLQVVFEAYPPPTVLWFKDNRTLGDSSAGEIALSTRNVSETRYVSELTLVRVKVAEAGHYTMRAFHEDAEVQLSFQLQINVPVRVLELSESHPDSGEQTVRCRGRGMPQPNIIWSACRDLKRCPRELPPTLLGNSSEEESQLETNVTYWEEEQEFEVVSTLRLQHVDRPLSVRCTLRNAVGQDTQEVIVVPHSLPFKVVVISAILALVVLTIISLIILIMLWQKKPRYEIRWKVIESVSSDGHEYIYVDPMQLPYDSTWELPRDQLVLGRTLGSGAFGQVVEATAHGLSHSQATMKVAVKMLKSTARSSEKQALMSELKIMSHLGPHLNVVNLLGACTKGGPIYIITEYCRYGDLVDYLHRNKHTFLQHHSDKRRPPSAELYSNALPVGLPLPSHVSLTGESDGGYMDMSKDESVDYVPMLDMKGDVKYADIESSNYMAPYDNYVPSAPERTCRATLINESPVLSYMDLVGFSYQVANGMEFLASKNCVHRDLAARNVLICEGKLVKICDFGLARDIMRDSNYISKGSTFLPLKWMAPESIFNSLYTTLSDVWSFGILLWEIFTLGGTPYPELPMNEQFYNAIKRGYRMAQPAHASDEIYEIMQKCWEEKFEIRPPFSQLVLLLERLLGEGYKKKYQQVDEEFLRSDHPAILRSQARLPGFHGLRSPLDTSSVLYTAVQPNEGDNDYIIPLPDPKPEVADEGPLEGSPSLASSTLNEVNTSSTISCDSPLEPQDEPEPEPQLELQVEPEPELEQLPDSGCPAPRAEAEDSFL
T1 sequence (P00533 whole entry): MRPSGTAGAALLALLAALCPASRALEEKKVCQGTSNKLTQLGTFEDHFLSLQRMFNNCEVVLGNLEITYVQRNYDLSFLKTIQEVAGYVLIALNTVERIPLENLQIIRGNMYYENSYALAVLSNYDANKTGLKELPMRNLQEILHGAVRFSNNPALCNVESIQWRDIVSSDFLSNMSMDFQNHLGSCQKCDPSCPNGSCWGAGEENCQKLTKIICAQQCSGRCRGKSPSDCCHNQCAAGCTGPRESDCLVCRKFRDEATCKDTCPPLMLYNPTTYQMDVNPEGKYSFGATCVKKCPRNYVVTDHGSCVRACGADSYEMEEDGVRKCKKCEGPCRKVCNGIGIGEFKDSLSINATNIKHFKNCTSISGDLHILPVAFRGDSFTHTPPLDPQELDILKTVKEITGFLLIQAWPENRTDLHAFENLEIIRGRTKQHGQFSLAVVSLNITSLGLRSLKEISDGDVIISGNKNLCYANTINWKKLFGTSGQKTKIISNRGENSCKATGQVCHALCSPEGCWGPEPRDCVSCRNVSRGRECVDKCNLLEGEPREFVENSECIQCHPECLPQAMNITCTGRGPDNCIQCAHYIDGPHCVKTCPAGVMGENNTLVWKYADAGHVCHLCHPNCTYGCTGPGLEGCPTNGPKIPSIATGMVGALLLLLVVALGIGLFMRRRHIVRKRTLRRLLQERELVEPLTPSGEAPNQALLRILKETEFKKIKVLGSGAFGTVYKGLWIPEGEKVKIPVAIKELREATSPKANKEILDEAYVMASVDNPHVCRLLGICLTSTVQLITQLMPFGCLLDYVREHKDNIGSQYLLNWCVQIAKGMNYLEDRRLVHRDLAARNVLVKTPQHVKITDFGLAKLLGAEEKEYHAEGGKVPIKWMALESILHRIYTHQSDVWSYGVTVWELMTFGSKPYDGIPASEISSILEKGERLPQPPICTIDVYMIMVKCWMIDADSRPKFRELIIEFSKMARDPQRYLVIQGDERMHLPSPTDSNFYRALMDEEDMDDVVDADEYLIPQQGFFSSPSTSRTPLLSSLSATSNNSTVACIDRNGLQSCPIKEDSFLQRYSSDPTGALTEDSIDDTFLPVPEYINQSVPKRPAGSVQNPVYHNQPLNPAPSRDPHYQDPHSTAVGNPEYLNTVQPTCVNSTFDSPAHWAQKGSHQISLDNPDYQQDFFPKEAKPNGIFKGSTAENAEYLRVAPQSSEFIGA
Vascular endothelial growth factor receptor 1, sequence (P17948 whole entry): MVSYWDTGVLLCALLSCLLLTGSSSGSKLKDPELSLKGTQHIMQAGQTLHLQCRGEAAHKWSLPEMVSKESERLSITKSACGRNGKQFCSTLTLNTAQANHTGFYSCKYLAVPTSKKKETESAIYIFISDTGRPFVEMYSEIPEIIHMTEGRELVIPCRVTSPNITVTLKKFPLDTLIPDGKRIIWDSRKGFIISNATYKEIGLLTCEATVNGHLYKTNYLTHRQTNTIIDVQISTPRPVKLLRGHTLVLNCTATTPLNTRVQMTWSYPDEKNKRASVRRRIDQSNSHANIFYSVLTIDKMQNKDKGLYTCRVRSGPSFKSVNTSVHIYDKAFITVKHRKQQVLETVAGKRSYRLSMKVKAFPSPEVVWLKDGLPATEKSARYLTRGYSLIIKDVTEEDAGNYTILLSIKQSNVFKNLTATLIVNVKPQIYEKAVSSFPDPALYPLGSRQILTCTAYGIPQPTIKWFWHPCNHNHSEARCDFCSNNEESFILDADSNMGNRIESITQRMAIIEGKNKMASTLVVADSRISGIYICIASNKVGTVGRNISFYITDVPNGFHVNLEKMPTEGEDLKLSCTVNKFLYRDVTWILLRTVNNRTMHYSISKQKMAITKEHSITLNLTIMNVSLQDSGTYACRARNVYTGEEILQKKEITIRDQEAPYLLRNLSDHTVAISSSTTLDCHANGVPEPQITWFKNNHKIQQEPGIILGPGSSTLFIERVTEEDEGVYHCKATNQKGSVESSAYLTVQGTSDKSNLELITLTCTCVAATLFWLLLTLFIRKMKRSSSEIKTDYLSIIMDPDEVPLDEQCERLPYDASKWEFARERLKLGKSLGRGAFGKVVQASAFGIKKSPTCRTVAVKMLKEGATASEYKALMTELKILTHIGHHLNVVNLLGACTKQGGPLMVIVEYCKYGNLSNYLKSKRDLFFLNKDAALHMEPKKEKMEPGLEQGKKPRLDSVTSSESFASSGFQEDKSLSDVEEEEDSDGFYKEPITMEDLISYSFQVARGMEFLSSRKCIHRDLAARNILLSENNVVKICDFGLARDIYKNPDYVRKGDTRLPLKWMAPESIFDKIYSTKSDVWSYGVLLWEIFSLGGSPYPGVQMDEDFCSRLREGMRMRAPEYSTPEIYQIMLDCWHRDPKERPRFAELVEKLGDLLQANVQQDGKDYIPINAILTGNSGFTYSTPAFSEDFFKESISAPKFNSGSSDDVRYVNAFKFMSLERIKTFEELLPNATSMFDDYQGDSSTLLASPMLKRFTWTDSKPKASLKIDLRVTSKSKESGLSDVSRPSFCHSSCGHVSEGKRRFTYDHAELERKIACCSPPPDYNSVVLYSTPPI

Row | SMILES | IC50 [1] | IC50 [2] | IC50 [3] | IC50 [4] | IC50 [5] | IC50 [6] | IC50 [7] | IC50 [8]
1 | Nc1nc(Nc2cccc(Br)c2)c2cc(CCc3ccccc3)[nH]c2n1 | 19.5 µM | – | – | – | – | – | – | –
2 | c1ccc(CCc2cc3c(Nc4ccc5[nH]ccc5c4)ncnc3[nH]2)cc1 | – | 104 µM | 56.1 µM | 224 µM | 31.6 µM | – | – | –
3 | Fc1ccc(Nc2ncnc3[nH]c(CCc4ccccc4)cc23)cc1Br | – | 192 µM | > 200 µM | > 200 µM | 25.2 µM | > 500 µM | – | –
4 | Fc1ccc(Nc2ncnc3[nH]c(CCc4ccccc4)cc23)cc1C(F)(F)F | – | > 500 µM | > 200 µM | 164 µM | 57.5 µM | > 500 µM | – | –
5 | Fc1cc(Cl)ccc1Nc1ncnc2[nH]c(CCc3ccccc3)cc12 | – | > 500 µM | > 200 µM | > 200 µM | 40.5 µM | – | – | –
6 | Nc1nc(Nc2ccc(F)c(Br)c2)c2cc(CCc3ccccc3)[nH]c2n1 | – | – | – | – | – | – | 22.8 µM | 132 µM
7 | C#Cc1cccc(Nc2ncnc3[nH]c(CCc4ccccc4)cc23)c1 | – | > 500 µM | > 200 µM | 142 µM | 49.4 µM | > 500 µM | – | –
8 | Brc1cccc(Nc2ncnc3[nH]c(CCc4ccccc4)cc23)c1 | – | 8.5 µM | > 200 µM | 129 µM | 112 µM | > 500 µM | – | –
9 | FC(F)(F)c1cccc(Nc2ncnc3[nH]c(CCc4ccccc4)cc23)c1 | – | > 500 µM | > 200 µM | > 200 µM | 22.1 µM | > 500 µM | – | –
